SMILES strings stand for the structures.

In test [1] the test system is immortalized megakaryocyte line (SeV2-MKCL). Nature of the test: Platelet production: static culturing of immortalized megakaryocyte line. In kind it is cell-based. Particulars: compound final concentration 0.1 μM, static culturing 6 to 7 days, control (DMSO) set to 1; platelets = CD41, CD42b and CD42a-positive cells. On the procedure: Test Example 2 (Platelet Production: Static Culturing)
The immortalized megakaryocyte line (SeV2-MKCL) obtained according to the method described in WO 2016/204256 was washed twice with D-PBS(−) and then cultured in medium not containing doxycycline to terminate forced expression. Culturing was implemented by seeding the cells at 1 mL/well in a 24-well plate (#662160 (Greiner Rio-One)) at a seeding density of 1×10^5 cells/mL followed by static culturing in the medium indicated below.
The medium was obtained by adding the following components to IMDM serving as the basal medium (concentrations indicate final concentrations).
Culturing was implemented under conditions of 37° C. and 5% CO2. At the same time, the compound of the present invention (final concentration 0.1 μM) or DMSO (control) was added and cultured for 6 to 7 days. Thereafter, the number of platelets (CD41, CD42b, and CD42a-positive cells) was measured. The measurement method was as shown below. The same procedure was performed with the control.
A portion of the culture supernatant was harvested 6 to 7 days after culturing to terminate gene expression, and suspended with the following antibodies to stain them. eFluor 450-labeled anti-CD42a antibody (#48-0428-42 (eBioscience)) PE-labeled anti-CD42b antibody (#303906 (BioLegend)) APC-labeled anti-CD41 antibody (#303710 (BioLegend)) The number of platelets was counted using FACSVerse manufactured by BD 30 minutes after the stain reaction. In the measurement of the number of platelets, the number of cells was corrected using Flow-count beads (#7547053 (Beckman Coulter)).
The number of platelets produced from one megakaryocyte cell was calculated based on the number of platelets in the sample obtained by the FACS measurement, and the result was defined as platelet production efficiency (PLT/MK) and used for evaluation of drug efficacy of the compound. In addition, the specific activity at the time when the platelet production efficiency of the control was set to 1 was indicated as fold increase.

The target in test [2] is T1, aryl hydrocarbon receptor (AhR) (Homo sapiens, UniProt P35869).
T1 construct: DRE-Luc HepG2 cells subcultured in a 225 cm^2 flask; endogenous in cells; host or cells: HepG2 (ATCC), stably transfected with the reporter hCYP1A1/pGL4.27 (DRE-Luc HepG2)
T1 sequence (P35869 11-848): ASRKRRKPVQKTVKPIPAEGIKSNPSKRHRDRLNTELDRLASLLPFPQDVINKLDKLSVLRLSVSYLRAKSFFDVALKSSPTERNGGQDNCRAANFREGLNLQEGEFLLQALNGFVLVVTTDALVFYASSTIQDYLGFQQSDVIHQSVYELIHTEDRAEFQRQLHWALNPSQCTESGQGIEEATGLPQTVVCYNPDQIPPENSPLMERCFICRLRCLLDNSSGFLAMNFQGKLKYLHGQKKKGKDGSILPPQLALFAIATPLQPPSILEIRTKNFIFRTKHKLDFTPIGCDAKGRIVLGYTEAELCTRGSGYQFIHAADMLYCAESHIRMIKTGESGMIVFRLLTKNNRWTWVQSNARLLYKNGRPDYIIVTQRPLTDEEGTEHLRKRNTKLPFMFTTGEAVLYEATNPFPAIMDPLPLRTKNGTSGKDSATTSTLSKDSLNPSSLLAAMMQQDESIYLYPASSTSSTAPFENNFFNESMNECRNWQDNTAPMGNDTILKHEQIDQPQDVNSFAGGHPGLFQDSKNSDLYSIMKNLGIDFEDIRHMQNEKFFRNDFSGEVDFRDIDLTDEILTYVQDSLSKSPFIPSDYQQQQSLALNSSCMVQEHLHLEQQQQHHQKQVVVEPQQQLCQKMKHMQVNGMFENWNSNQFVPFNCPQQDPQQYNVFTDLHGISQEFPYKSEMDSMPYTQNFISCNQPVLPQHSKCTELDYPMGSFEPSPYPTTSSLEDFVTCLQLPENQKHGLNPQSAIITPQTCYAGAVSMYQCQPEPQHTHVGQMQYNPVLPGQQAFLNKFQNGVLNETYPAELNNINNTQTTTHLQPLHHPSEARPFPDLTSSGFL
Nature of the test: AhR reporter gene assay (aryl hydrocarbon receptor antagonist activity, DRE-Luc HepG2 cells, TCDD-stimulated luciferase). Format: cell-based. The method, then: Test Example 1 (Aryl Hydrocarbon Receptor Antagonist Activity)
An expression vector, hCYP1A1/pGL4.27 was introduced into HepG2 cells (derived from American Type Culture Collection (ATCC)) that were seeded in 6-well plates (#3810-006 (Iwaki)) at 1.2×10^6 cells/well, using Lipofectamine 3000 (#100022050 (Invitrogen)). Referring to Garrion P M et al., Fundam Appl Toxicol, 30, 194 (1996), the vector hCYP1A1/pGL4.27 incorporated the human CYP1A1 promotor region including dioxin responsive element (DRE) region of the AhR binding region into the XhoI-BglII restriction enzyme site of pGL4.27 (#E8451 (Promega)). After 24 hours, medium-1 was replaced, and after 48 hours, the medium-1 containing hygromycin B (200 to 1000 μg/mL) was subjected to drug treatment. Culturing using the medium containing hygromycin B was continued for about 1 month to clone 24 clones showing drug resistance. A cell line showing high reporter activity was selected (DRE-Luc HepG2) from drug resistant lines using as an indicator luciferase activity (Dual-Glo Luciferase substrate, #E297A (Promega)) relative to an AhR agonist, 2,3,7,8-tetrachlorodibenzo-p-dioxin (TCDD) (#ED-901-B (CIL.)).
DRE-Luc HepG2 cells subcultured in a 225 cm^2 flask (#11-0005 (Iwaki)) were washed with PBS (#1419-144 (Gibco), Lot: 1896207), and thereto was added 8 mL of Trypsin-EDTA (0.05%) (#25300-054 (Gibco)). Thereafter, an excessive liquid was removed from the mixture, and the cells were stood at room temperature for 5 minutes. Thereto was added 10 mL of medium-2, the cells were recovered through a cell strainer (#352350 (Falcon), 70 μm), and the number of cells were then counted using a hemocytometer. A cell suspension was prepared at 3×10^5 cells/mL, 100 μL/well of the cell suspension was seeded into a 96-well white plate (#136101, F96 Microwell (Nunc)), and the cells were then cultured in a CO2 incubator (5% CO2, 37° C.). After 24 hours, the medium was aspirated, and thereto was added 100 μL of an assay medium solution including the compound of the present invention, and the cells were cultured in the CO2 incubator (5% CO2, 37° C.). After 24 hours, 11 μL of an assay medium solution including 5×10^−10 M TCDD (#ED-901-B (CIL.)) was added thereto and the cells were cultured in the CO2 incubator (5% CO2, 37° C.). After 24 hours, 50 μL of a reaction substrate (#E253B, Steady-Glo Luciferase substrate (Promega)) for Firefly Luciferase enzyme reaction was added to each well, and after 5 minute-shaking, the light emission intensity was measured with Wallac ARVO 1420sx (PerkinElmer).
For orientation: A reporter such as luciferase makes a cellular process visible.

What is called IC50 is the concentration that gives 50% inhibition. As for `CC1(C)CSc2nc3c(NCCc4ccc(O)c(-c5cccc(C#N)c5)c4)nc(-c4cncc(C#N)c4)nc3n21` [Example 60], the “Static (vs veh): fold increase of platelet production efficiency (PLT/MK)” value (from here on “Static (vs veh): fold increase”) in test [1] was found to be 3.4. In test [2], this molecule yielded an IC50 of 0.43 nM.
Turning to `CC1(C)COc2nc3c(NCCc4ccc(O)c(-c5cc(F)cc(F)c5)c4)nc(-c4cncc(F)c4)nc3n21` [Example 12], in test [1], the “Static (vs veh): fold increase” value worked out at 7.6. In test [2], half-maximal inhibition (IC50) was put at 12 nM.
Turning to `COc1cccc(-c2cc(CCNc3nc(-c4cncc(F)c4)nc4c3nc3n4C(C)(C)CO3)ccc2O)c1` [Example 13, 4-[2-[[2-(5-fluoropyridin-3-yl)-8,8-dimethyl-7H-purino[8,9-b][1,3]oxazol-4-yl]amino]ethyl]-2-(3-methoxyphenyl)phenol], the “Static (vs veh): fold increase” value in test [1] is recorded as 4.7. In test [2], this molecule returned an IC50 of 29 nM.
On the same counts, the results for `CN(C)C(=O)Cc1cccc(-c2cc(CCNc3nc(-c4cncc(F)c4)nc4c3nc3n4C(C)(C)CO3)ccc2O)c1` [Example 79] are 2.9 and 6.6 nM.
In the case of `C[C@@H]1COc2nc3c(NCCc4ccc(O)c(-c5cncc(C#N)c5)c4)nc(-c4cncc(F)c4)nc3n21` [Example 77], the “Static (vs veh): fold increase” value in test [1] is 3.5. In test [2], this molecule registered an IC50 of 9.2 nM.
In the case of `Cc1ccccc1-c1cc(CCNc2nc(-c3cncc(F)c3)nc3c2nc2n3C(C)(C)CO2)ccc1O` [Example 40], the “Static (vs veh): fold increase” value in test [1] was found to be 9.8. Moreover, the IC50 in test [2] turned out to be 40 nM.
The matching figures for `Cc1cncc(-c2nc(NCCc3ccc(O)c(-c4cccc(F)c4)c3)c3nc4n(c3n2)C(C)(C)CO4)c1` [Example 24]: 7.7 and 3.9 nM.
Take `CC1(C)COc2nc3c(NCCc4ccc(O)c(-c5ccc(Cl)cc5)c4)nc(-c4cncc(F)c4)nc3n21` [Example 7]: in test [1], the “Static (vs veh): fold increase” value was 7.3. Also, the IC50 in test [2] stood at 9.1 nM.
In the case of `CC1(C)COc2nc3c(NCCc4ccc(O)c(-c5cccc(S(C)(=O)=O)c5)c4)nc(-c4cncc(F)c4)nc3n21` [Example 78], in test [1], the “Static (vs veh): fold increase” value came out at 4.3. This molecule also showed an IC50 in test [2] of 3.9 nM.
Take `CC1(C)COc2nc3c(NCCc4c[nH]c5ccccc45)nc(-c4ccc5nccn5c4)nc3n21` [Example 110]: the “Static (vs veh): fold increase” value in test [1] was determined as 6.1. The molecule further displayed an IC50 in test [2] of 40 nM.
`C[C@@H]1CSc2nc3c(NCCc4ccc(O)c(-c5cccc(F)c5)c4)nc(-c4cncc(F)c4)nc3n21` [Example 29]: in test [1], the “Static (vs veh): fold increase” value is recorded as 8.4. Further, 0.37 nM corresponded to half-maximal inhibition in test [2] (IC50).
The matching figures for `Cc1cncc(-c2nc(NCCc3ccc(O)c(-c4cccc(F)c4)c3)c3nc4n(c3n2)C(C)(C)CS4)c1` [Example 27]: 6.0 and 0.35 nM.
Take `CC1(C)COc2nc3c(NCCc4ccc(O)c(-c5cccc(C#N)c5)c4)nc(-c4ccnc(F)c4)nc3n21` [Example 64]: the “Static (vs veh): fold increase” value in test [1] came out at 3.7. Further, the IC50 in test [2] is 5.7 nM.
As to `Cc1cncc(-c2cc(CCNc3nc(-c4cncc(F)c4)nc4c3nc3n4[C@H](C)CS3)ccc2O)c1` [Example 74], in test [1], the “Static (vs veh): fold increase” value is 3.5. Also, half-maximal inhibition in test [2] (IC50) was put at 4.7 nM.
Turning to `CC1(C)COc2nc3c(NCCc4ccc(O)c(-c5cccc(C#N)c5)c4)nc(-c4ccc5nccn5c4)nc3n21` [Example 63], the “Static (vs veh): fold increase” value in test [1] turned out to be 4.8. For the same molecule, inhibition in test [2] was half-maximal at 17 nM (IC50).
In the case of `CC1(C)COc2nc3c(NCCc4ccc(O)c(-c5cc(C#N)ccc5F)c4)nc(-c4cncc(C#N)c4)nc3n21` [Example 65], in test [1], the “Static (vs veh): fold increase” value is reported as 3.3. In addition, in test [2], inhibition was half-maximal at 3.9 nM (IC50).
The matching figures for `Cc1cncc(-c2cc(CCNc3nc(-c4cncc(F)c4)nc4c3nc3n4C(C)(C)CO3)ccc2O)c1` [Example 72]: 6.8 and 9.8 nM.
Consider `C[C@@H]1C[S+]([O-])c2nc3c(NCCc4c[nH]c5ccccc45)nc(-c4cncc(F)c4)nc3n21` (some centres unmarked) [Example 108], for which the “Static (vs veh): fold increase” value in test [1] is reported as 6.6. The IC50 in test [2] came out at 4.1 nM.
As for `CC1(C)COc2nc3c(NCCc4ccc(O)c(-c5ccccc5)c4)nc(-c4cncc(C#N)c4)nc3n21` [Example 46, 5-[4-[2-(4-hydroxy-3-phenylphenyl)ethylamino]-8,8-dimethyl-7H-purino[8,9-b][1,3]oxazol-2-yl]pyridine-3-carbonitrile], in test [1], the “Static (vs veh): fold increase” value stood at 5.0. This molecule yielded an IC50 in test [2] of 9.9 nM.
On to `CC1(C)COc2nc3c(NCCc4ccc(O)c(-c5cc(F)ccc5F)c4)nc(-c4cncc(F)c4)nc3n21` [Example 10], for which the “Static (vs veh): fold increase” value in test [1] worked out at 5.5. In test [2], this molecule displayed an IC50 of 11 nM.
Consider `CC1(C)COc2nc3c(NCCc4ccc(O)c(-c5cccc(C(F)(F)F)c5)c4)nc(-c4cncc(F)c4)nc3n21` [Example 16], for which the “Static (vs veh): fold increase” value in test [1] came to 10. Half-maximal inhibition in test [2] (IC50) required 3.9 nM.
For the molecule `C[C@@H]1CSc2nc3c(NCCc4ccc(O)c(-c5cccc(C#N)c5)c4)nc(-c4cncc(F)c4)nc3n21` [Example 58], the “Static (vs veh): fold increase” value in test [1] is listed as 5.1. In addition, 0.46 nM corresponded to half-maximal inhibition in test [2] (IC50).
